In the NIST ThermoML archive (doi:10.1007/s10765-012-1370-2):

Test: xn = mol fraction of the nth substance listed
Settings: Liquid, Bellows volumetry

CCC [propane] + O=C=O
mass density [kg/m3]
Settings	280 K	320 K	360 K	400 K	440 K
3000 kPa, x2 = 0.1744	556.31	–	–	–	–
5000 kPa, x2 = 0.1744	561.89	482.68	–	–	–
10000 kPa, x2 = 0.1744	573.48	508.23	419.87	–	–
10000 kPa, x2 = 0.3863	620.48	530.48	–	–	–
10000 kPa, x2 = 0.5837	680.55	547.46	–	–	–
10000 kPa, x2 = 0.7732	763.91	–	–	–	–
20000 kPa, x2 = 0.1744	592.16	539.43	481.41	–	–
20000 kPa, x2 = 0.3863	644.94	577.9	501.31	416.94	–
20000 kPa, x2 = 0.5837	713.25	623.7	518.21	–	–
20000 kPa, x2 = 0.7732	807.46	683.7	532.45	–	–
30000 kPa, x2 = 0.1744	606.51	560.67	513.49	463.97	–
30000 kPa, x2 = 0.3863	663.74	606.46	546.54	484.73	425.58
30000 kPa, x2 = 0.5837	737.38	663.4	584.42	504.63	–
30000 kPa, x2 = 0.7732	837.33	738.49	631.46	526.28	–
40000 kPa, x2 = 0.1744	619.31	577.4	535.86	493.75	453.4
40000 kPa, x2 = 0.3863	678.81	628.01	576.34	524.65	475.39
40000 kPa, x2 = 0.5837	756.53	691.1	624.74	558.9	498.14
40000 kPa, x2 = 0.7732	861.06	775.23	686.69	600.44	524.14
50000 kPa, x2 = 0.1744	629.89	591.36	553.69	515.97	480.3
50000 kPa, x2 = 0.3863	691.83	645.47	599.05	553.29	510.05
50000 kPa, x2 = 0.5837	772.63	713.18	654.15	596.39	543.19
50000 kPa, x2 = 0.7732	880.32	803.46	725.46	650.25	582.81
60000 kPa, x2 = 0.1744	639.83	603.47	568.6	533.68	501.53
60000 kPa, x2 = 0.3863	703.48	660.15	617.66	575.8	536.68
60000 kPa, x2 = 0.5837	786.68	731.74	677.69	625.2	577.1
60000 kPa, x2 = 0.7732	897.67	826.73	755.67	687.92	626.71
70000 kPa, x2 = 0.1744	648.12	613.78	581.28	548.87	518.95
70000 kPa, x2 = 0.3863	713.93	673.05	633.44	594.51	558.53
70000 kPa, x2 = 0.5837	799.31	747.63	697.37	648.89	604.68
70000 kPa, x2 = 0.7732	912.73	846.24	780.83	718.31	661.78
80000 kPa, x2 = 0.1744	656.23	623.2	592.36	561.96	533.91
80000 kPa, x2 = 0.3863	723.24	684.45	647.34	610.56	576.94
80000 kPa, x2 = 0.5837	810.6	761.45	714.31	668.81	627.72
80000 kPa, x2 = 0.7732	927.24	863.57	802.2	743.76	690.97
90000 kPa, x2 = 0.1744	663.51	631.77	602.5	573.37	546.96
90000 kPa, x2 = 0.3863	732.5	694.88	659.51	624.68	592.95
90000 kPa, x2 = 0.5837	821.14	773.99	729.21	686.29	647.49
90000 kPa, x2 = 0.7732	939.34	879.25	821	765.81	715.85
100000 kPa, x2 = 0.1744	670.12	639.8	611.43	583.87	558.7
100000 kPa, x2 = 0.3863	740.27	704.18	670.54	637.16	607.11
100000 kPa, x2 = 0.5837	830.57	785.61	742.72	701.68	664.74
100000 kPa, x2 = 0.7732	951.22	893.05	837.52	785.16	737.47
120000 kPa, x2 = 0.1744	682.47	654.22	627.94	601.92	578.72
120000 kPa, x2 = 0.3863	754.61	721.25	690.06	658.95	631.24
120000 kPa, x2 = 0.5837	847.84	806	766.21	728.37	694.36
120000 kPa, x2 = 0.7732	971.86	917.78	866.62	818.25	774.63
140000 kPa, x2 = 0.1744	693.54	666.67	642.06	617.62	595.88
140000 kPa, x2 = 0.3863	767.28	735.96	706.76	677.58	651.66
140000 kPa, x2 = 0.5837	862.96	824.18	786.28	750.66	719.21
140000 kPa, x2 = 0.7732	989.75	939.18	891.18	845.81	805.33
160000 kPa, x2 = 0.1744	703.41	678.11	654.39	631.49	610.94
160000 kPa, x2 = 0.3863	779.18	749.2	721.47	693.82	669.67
160000 kPa, x2 = 0.5837	876.77	839.79	803.84	770.18	740.68
160000 kPa, x2 = 0.7732	1006.14	958.02	912.47	869.72	831.52
180000 kPa, x2 = 0.1744	712.71	688.17	665.89	643.58	624.2
180000 kPa, x2 = 0.3863	789.73	761.05	734.92	708.41	685.33
180000 kPa, x2 = 0.5837	889	853.99	819.85	787.61	759.39
180000 kPa, x2 = 0.7732	1020.76	975.24	931.8	890.88	854.41
200000 kPa, x2 = 0.1744	720.96	697.95	676.04	654.96	636.19
200000 kPa, x2 = 0.3863	799.56	772.24	746.96	721.61	699.19
200000 kPa, x2 = 0.5837	900.92	866.84	833.79	803.17	776.34
200000 kPa, x2 = 0.7732	1034.57	990.64	948.91	909.94	875.02
